Data from publication PMC6002460, “Pharmacological evaluation of new constituents of “Spice”: synthetic cannabinoids based on indole, indazole, benzimidazole and carbazole scaffolds” (Forensic Toxicology, 2018).
Like-named read-outs stand apart in the source and are kept apart here.

Experiments:
human CB2 receptor [1] = target: T1, human CB2 receptor (Homo sapiens, UniProt P34972); assay: biochemical; type: binding; conditions: [3H]CP55,940 0.1 nM, CHO cell membranes; read-out: Ki ± SEM Human CB2
T1 construct: expressed in transfected cells; host or cells: CHO cells (membrane preparations)
T1 sequence (P34972 whole entry): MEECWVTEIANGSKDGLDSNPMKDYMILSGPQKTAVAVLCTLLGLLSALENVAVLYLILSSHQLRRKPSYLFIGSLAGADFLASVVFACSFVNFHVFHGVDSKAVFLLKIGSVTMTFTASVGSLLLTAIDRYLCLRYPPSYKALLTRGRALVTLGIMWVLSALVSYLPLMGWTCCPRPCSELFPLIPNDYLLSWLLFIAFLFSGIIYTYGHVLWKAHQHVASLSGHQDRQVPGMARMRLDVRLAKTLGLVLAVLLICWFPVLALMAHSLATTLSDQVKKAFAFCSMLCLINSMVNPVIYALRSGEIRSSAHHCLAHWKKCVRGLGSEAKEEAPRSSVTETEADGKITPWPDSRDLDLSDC

CB2 receptor [2] = conditions: membrane potential assay, cited from earlier work
human GPR18 = target: T2, human GPR18 (Homo sapiens, UniProt Q14330); assay: β-Arrestin PathHunter assay, recombinant CHO cells expressing GPR18; type: cell-based; conditions: for Human GPR18 % activation / Human GPR18 % inhibition: value in parentheses
T2 construct: host or cells: CHO cells
T2 sequence (Q14330 1-331): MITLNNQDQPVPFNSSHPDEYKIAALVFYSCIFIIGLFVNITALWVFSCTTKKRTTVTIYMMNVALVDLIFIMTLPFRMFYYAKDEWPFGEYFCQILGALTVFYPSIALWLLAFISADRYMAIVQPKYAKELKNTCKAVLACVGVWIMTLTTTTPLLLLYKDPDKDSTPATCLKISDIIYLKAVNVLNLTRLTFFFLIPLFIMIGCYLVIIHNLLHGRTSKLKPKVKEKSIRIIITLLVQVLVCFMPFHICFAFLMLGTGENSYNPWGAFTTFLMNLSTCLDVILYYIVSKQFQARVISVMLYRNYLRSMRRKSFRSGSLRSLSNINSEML
Method: (§1) β-Arrestin assays were performed in recombinant CHO cells expressing either the human GPR18 or the human GPR55 as described before using the β-galactosidase enzyme fragment complementation technology (β-arrestin PathHunter™ assay; DiscoverX, Fremont, CA, USA).
(§2) The orphan receptors GPR18 and GPR55 can interact with certain natural and synthetic cannabinoids. […] Therefore, we investigated the new series of indole, indazole, benzimidazole and carbazole-derived structures in β-arrestin assays at GPR18 and GPR55 (Table 2). […] For the lipophilic substitutions, the following rank order of potency was observed: ethyl > methyl > chloro > fluoro. Therefore, it can be concluded that a lipophilic substitution in position 4 of the naphthyl residue was a requirement for GPR55 inhibition.

rats = test system: rats; set-up: method as in PMID 27421060; conditions: cited from earlier work
human CB1 receptor [3] = target: T3, human CB1 receptor (Homo sapiens, UniProt P21554); assay: biochemical; type: binding; conditions: [3H]CP55,940 0.1 nM, CHO cell membranes; read-out: Ki ± SEM Human CB1
T3 construct: expressed in transfected cells; host or cells: CHO cells (membrane preparations)
T3 sequence (P21554 whole entry): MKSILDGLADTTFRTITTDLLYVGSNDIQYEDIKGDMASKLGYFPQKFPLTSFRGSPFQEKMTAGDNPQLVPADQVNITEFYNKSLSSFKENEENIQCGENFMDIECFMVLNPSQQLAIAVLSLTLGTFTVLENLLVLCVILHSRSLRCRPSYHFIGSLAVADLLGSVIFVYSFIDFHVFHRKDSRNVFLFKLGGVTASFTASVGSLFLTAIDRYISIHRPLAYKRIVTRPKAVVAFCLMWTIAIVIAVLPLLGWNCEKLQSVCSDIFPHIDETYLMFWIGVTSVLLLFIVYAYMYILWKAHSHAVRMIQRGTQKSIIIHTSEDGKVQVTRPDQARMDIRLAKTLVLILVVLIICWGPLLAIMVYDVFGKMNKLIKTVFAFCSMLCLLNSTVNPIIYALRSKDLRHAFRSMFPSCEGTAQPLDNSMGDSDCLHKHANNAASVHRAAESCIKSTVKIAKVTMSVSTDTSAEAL

human CB2 receptor [4] = target: T1, human CB2 receptor; assay: cAMP accumulation assay, CHO cells stably expressing CB2; type: cell-based
Method: (§3) cAMP accumulation assays were performed also as previously described. Briefly, CHO cells stably expressing the respective human CB receptor subtype CB1 or CB2 were seeded overnight. […] After incubation for 15 min the buffer was removed, and the cells were lyzed. The amount of cAMP was determined in a radioligand binding assay by incubating 50 µL of the cell lysate with 3 nM [^3H]cAMP in the presence of protein preparations from bovine adrenal glands (cAMP binding protein). Bound and unbound radioligand were separated by rapid filtration through GF/B filters, and radioactivity was determined by liquid scintillation counting. To test for antagonistic activity, test compounds were added to Hank’s buffered salt solution (HBSS) containing 10% dimethyl sulfoxide (DMSO), 10 min after the application of Ro-20-1724, and the mixture was incubated for 20 min at 37 °C.
(§4) As a next step, we investigated the compounds in cAMP accumulation assays, to obtain information on their functionality (Fig. 3). CB receptors are Gi protein-coupled and thus reduce the levels of cAMP in the cells upon activation.

CB1 receptor [5] = conditions: membrane potential assay, cited from earlier work
human CB1 receptor [6] = target: T3, human CB1 receptor; assay: cAMP accumulation assay, CHO cells stably expressing CB1; type: cell-based
Method: as §3, §4

human GPR55 [7] = target: T4, human GPR55 (Homo sapiens, UniProt Q9Y2T6); assay: β-Arrestin PathHunter assay, recombinant CHO cells expressing GPR55; type: cell-based; conditions: for Human GPR55 % inhibition: antagonist mode versus LPI 1 µM; for Human GPR55 % inhibition / Human GPR55 % activation: value in parentheses
T4 construct: host or cells: CHO cells
T4 sequence (Q9Y2T6 whole entry): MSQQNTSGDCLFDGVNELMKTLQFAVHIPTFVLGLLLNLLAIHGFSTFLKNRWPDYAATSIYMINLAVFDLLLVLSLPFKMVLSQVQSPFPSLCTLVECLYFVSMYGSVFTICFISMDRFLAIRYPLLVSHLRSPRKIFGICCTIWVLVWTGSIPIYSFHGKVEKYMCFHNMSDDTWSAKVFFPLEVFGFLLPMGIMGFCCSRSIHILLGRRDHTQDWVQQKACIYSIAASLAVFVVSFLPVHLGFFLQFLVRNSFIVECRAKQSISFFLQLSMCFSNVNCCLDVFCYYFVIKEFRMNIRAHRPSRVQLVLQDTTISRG
Method: as §1, §2

CB1 receptor [8] = target: CB1 receptor; set-up: method as in Wiley et al. [41]; conditions: versus 0.62 nM [3H]CP55,940; ref Wiley et al. [41]; cited from earlier work
[9] = set-up: method as in Wiley et al. [41]; conditions: receptor subtype not stated; ref Wiley et al. [41]; read-out: EC50 in [35S]GTPγS assays; cited from earlier work
CB2 receptor [10] = target: CB2 receptor; set-up: method as in Wiley et al. [41]; conditions: versus 0.62 nM [3H]CP55,940; ref Wiley et al. [41]; cited from earlier work
CB1 receptor [11] = target: CB1 receptor; set-up: method as in Bowden et al. [43]; conditions: HTRF cAMP accumulation; ref Bowden et al. [43]; cited from earlier work
CB2 receptor [12] = target: CB2 receptor; set-up: method as in Bowden et al. [43]; conditions: HTRF cAMP accumulation; ref Bowden et al. [43]; cited from earlier work
human GPR55 [13] = target: T4, human GPR55; conditions: previous study; cited from earlier work
human CB1 receptor [14] = target: T3, human CB1 receptor; set-up: method as in PMID 27429655; conditions: previous study; cited from earlier work
[15] = compound at 10 µM, normalized to CP55,940 (1 µM)

For `COC(=O)[C@@H](NC(=O)c1nn(Cc2ccc(F)cc2)c2ccccc12)C(C)(C)C` [compound 12, MDMB-FUBINACA], the Ki (human CB2 receptor [1]) is given as 0.13 ± 0.01 nM, the EC50 (CB2 receptor [2]; ref Banister et al. [38]) is given as 55 nM and the EC50 (human GPR18) is given as > 10 µM. For the same compound, the IC50 (human GPR18) was > 10 µM, the “Human GPR18 % activation” value (human GPR18; agonist mode) was 18% and the “Human GPR18 % inhibition” value (human GPR18; antagonist mode) was 31%. For the same compound, the hypothermal response (rats) was “highest hypothermal response”, the Ki (human CB1 receptor [3]) was 0.0985 ± 0.0291 nM and the EC50 (human CB2 receptor [4]) was 0.756 nM. For the same compound, the EC50 (CB1 receptor [5]; ref Banister et al. [38]) was 3.9 nM, the EC50 (human CB1 receptor [6]) was 0.0641 nM and the EC50 (human GPR55 [7]) was > 10 µM. The IC50 (human GPR55 [7]) was > 10 µM and the “Human GPR55 % inhibition” value (human GPR55 [7]) was 30%.

In the case of `O=C(c1cccc2ccccc12)c1nc2ccccc2n1CCCCCF` [compound 42, FUBIMINA], the Ki (human CB2 receptor [1]) is reported as 99 ± 28.4 nM, the “Human GPR18 % activation” value (human GPR18; agonist mode) is reported as 42% and the EC50 (human GPR18; agonist mode, read-out: Human GPR18 EC50) is reported as > 10 µM. For the same compound, the “Human GPR18 % inhibition” value (human GPR18; antagonist mode) was 14%, the IC50 (human GPR18; antagonist mode, read-out: Human GPR18 IC50) was > 10 µM and the Ki (human CB1 receptor [3]) was 502 ± 181 nM. For the same compound, the “CB2 receptor activation in cAMP accumulation assay (in words)” value (human CB2 receptor [4]; [15]) was “partial activation”, the Ki (CB1 receptor [8]) was 296 nM and the EC50 [9] was 2470 nM. For the same compound, the “CB1 receptor activation in cAMP accumulation assay (in words)” value (human CB1 receptor [6]; [15]) was “partial activation”, the Ki (CB2 receptor [10]) was 23.5 nM and the “Human GPR55 % activation” value (human GPR55 [7]; agonist mode) was 16%. The EC50 (human GPR55 [7]; agonist mode, read-out: Human GPR55 EC50) was > 10 µM, the “Human GPR55 % inhibition” value (human GPR55 [7]) was 44% and the IC50 (human GPR55 [7]; antagonist mode versus lysophosphatidylinositol (LPI, 1 µM), read-out: Human GPR55 IC50) was > 10 µM.

With `CC(C)(NC(=O)c1nn(CC2CCOCC2)c2ccccc12)c1ccccc1` [compound 33] the Ki (human CB2 receptor [1]) was 1.38 ± 0.86 nM, the EC50 (human GPR18) was > 10 µM and the IC50 (human GPR18) was > 10 µM. The “Human GPR18 % activation” value (human GPR18; agonist mode) was 11%, the “Human GPR18 % inhibition” value (human GPR18; antagonist mode) was 9% and the EC50 (CB1 receptor [11]) was 0.1 nM. For the same compound, the Ki (human CB1 receptor [3]) was 1.23 ± 0.2 nM, the EC50 (CB2 receptor [12]) was 0.59 nM and the EC50 (human GPR55 [7]) was > 10 µM. For the same compound, the IC50 (human GPR55 [7]) was > 10 µM, the “Human GPR55 % activation” value (human GPR55 [7]; agonist mode) was 11% and the “Human GPR55 % inhibition” value (human GPR55 [7]) was 7%.

For `CCc1ccc(C(=O)c2cn(CCCCCF)c3ccccc23)c2ccccc12` [EAM-2201], the IC50 (human GPR55 [13]) is listed as 1860 nM.

In the case of `CC(C)(NC(=O)c1cn(CCCCCF)c2ccccc12)c1ccccc1` [compound 32, 5F-Cumyl-PICA], the Ki (human CB2 receptor [1]) is given as 29.1 ± 2.4 nM, the EC50 (CB2 receptor [2]; ref Longworth et al. [51]) is given as 39.6 nM and the EC50 (human GPR18) is given as > 10 µM. The IC50 (human GPR18) was > 10 µM, the “Human GPR18 % activation” value (human GPR18; agonist mode) was 16% and the EC50 (CB1 receptor [11]) was < 0.1 nM. The Ki (human CB1 receptor [3]) was 1.37 ± 0.26 nM, the EC50 (CB1 receptor [5]; ref Longworth et al. [51]) was 2.8 nM and the EC50 (CB2 receptor [12]) was 0.37 nM. For the same compound, the EC50 (human GPR55 [7]) was > 10 µM, the IC50 (human GPR55 [7]) was > 10 µM and the “Human GPR55 % activation” value (human GPR55 [7]; agonist mode) was 14%.

For `O=C(Oc1cccc2cccnc12)c1cn(CC2CCCCC2)c2ccccc12` [BB-22], the Ki (human CB1 receptor [14]) is given as 0.217 nM.
